ChEMBL document CHEMBL3638579, “Arylamino purine derivatives, preparation method and pharmaceutical use thereof” (2015)

Target: Vascular endothelial growth factor receptor 2 (Homo sapiens, UniProt P35968)
Experiment: Inhibition Assay: The object of this assay was to test the inventive compounds for the kinase inhibitory activity in vitro. In this assay, an isotopic labeling method was used to label the gamma phosphate group on ATP. EGFR (including wild type, L858R mutant type and L858R/T790M double mutant type), VEGFR2, ALK, BTK, c-KIT, c-SRC, MET, PDGFRalpha and FLT3 kinases were tested in vitro for the activity inhibition. Staurosporine was used as a reference molecule (or referred to as a positive control). […] The IC50 value can be obtained by the calculation of the inhibitory rates at a series of different concentrations of the tested compounds. 1. Materials: 20mM 3-(N-morpholinyl)propylsulfonic acid (MOPS); 1mM Ethylenediaminetetraacetic acid (EDTA); 0.01% Polyethylene glycol lauryl ether (Brij-35).

Chain of Vascular endothelial growth factor receptor 2 (P35968 20-1356 limits assumed, stated change not applied): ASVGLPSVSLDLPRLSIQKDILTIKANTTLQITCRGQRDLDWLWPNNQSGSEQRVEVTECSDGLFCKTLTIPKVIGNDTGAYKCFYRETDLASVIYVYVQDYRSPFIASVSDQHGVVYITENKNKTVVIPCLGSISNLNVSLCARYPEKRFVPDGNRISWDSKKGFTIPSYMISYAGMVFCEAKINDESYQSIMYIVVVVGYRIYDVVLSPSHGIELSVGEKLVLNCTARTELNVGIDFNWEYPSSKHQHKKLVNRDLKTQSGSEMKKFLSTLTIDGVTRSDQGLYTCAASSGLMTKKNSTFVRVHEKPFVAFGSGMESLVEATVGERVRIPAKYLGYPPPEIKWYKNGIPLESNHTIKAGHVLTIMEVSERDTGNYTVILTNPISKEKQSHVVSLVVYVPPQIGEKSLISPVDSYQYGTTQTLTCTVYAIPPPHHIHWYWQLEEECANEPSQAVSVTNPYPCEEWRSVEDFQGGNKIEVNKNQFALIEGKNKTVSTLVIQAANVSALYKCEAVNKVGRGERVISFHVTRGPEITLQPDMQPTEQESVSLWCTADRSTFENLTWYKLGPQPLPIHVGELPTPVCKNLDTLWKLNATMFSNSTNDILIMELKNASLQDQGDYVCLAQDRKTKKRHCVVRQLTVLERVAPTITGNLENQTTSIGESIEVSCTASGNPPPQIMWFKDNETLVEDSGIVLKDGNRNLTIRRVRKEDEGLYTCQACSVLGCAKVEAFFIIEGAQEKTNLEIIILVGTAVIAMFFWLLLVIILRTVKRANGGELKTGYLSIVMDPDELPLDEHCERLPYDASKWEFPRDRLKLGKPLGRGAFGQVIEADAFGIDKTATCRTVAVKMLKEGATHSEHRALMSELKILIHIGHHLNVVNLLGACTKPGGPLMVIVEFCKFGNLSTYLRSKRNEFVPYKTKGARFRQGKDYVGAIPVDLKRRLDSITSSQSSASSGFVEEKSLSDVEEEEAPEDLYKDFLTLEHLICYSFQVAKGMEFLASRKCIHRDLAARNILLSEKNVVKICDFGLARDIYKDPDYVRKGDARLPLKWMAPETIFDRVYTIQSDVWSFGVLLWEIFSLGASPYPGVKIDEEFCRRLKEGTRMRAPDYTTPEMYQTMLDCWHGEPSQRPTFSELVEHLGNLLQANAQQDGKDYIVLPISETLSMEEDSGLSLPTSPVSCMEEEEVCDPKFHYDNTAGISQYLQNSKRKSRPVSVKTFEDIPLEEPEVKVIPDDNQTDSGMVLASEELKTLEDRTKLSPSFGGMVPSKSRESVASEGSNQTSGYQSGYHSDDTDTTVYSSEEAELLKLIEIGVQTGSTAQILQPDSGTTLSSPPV

CC(C)n1c(Nc2ccccc2)nc2cnc(Nc3ccc(C(=O)NN4CCN(C)CC4)cc3F)nc21
IC50: > 1000 nM
